{
  "source": "patent US8598413B2",
  "about": "“AAD-1 event DAS-40278-9, related transgenic corn lines, event-specific identification thereof, and methods of weed control involving AAD-1” (Dow AgroSciecnes, LLC., priority 2009, dated 2013)",
  "key": {"[1]": {"tested_on": "hybrid corn containing pDAS1740-278", "assay": "Field tolerance to preemergence applications of 2,4-D (Example 13, Table 31)", "assay_type": "in vivo", "conditions": "PRE (0-2 days after planting), evaluated 16-21 days after application, pDAS1740-278 Hybrid", "protocol": "(§1) Transgenic hybrid corn (pDAS1740-278) containing the aad-1 gene which encodes the aryloxyalkanoate dioxygenase (AAD-1) protein was evaluated for tolerance to preemergence applications of 2,4-D in the field. Trials were conducted at multiple locations in Mississippi, Indiana, and Minnesota using a randomized complete block design with three replications of two row plots, approximately 6 m in length, at each site. Herbicide-treated plots were paired with untreated plots to provide accurate evaluation of emergence and early season growth. Herbicide treatments of 1120, 2240, and 4480 g ae/ha of 2,4-D amine were applied shortly after planting but before crop emergence (0-2 days after planting). Soil and precipitation information for these trials is contained in Table 30."}, "[2]": {"tested_on": "conventional control hybrid", "assay": "Field tolerance to preemergence applications of 2,4-D (Example 13, Table 31)", "assay_type": "in vivo, corn", "conditions": "PRE (0-2 days after planting), evaluated 16-21 days after application", "protocol": "as §1"}, "[3]": {"tested_on": "hybrid corn containing the aad-1 gene", "assay": "2,4-D amine applied 7, 15 or 30 days preplanting, corn (Example 13)", "assay_type": "in vivo", "conditions": "1120, 2240, 4480 g ae/ha at 7, 15 or 30 days preplanting", "excerpt": "Preemergence applications of 2,4-D amine are applied at rates of 1120, 2240, 4480 g ae/ha at 7 days, 15 days, or 30 days preplanting to hybrid corn containing the aad-1 gene and conventional control hybrids. The preemergence applications are applied using art recognized procedures to field plots which are located at geographically distinct locales. Herbicide-treated plots are paired with untreated plots to provide accurate evaluation of emergence and early season growth. Approximately 16-21 days after planting and 2,4-D applications at 7, 15 or 30 days preplanting; injury of the conventional control hybrids and hybrid corn containing aad-1 are measured."}, "[4]": {"tested_on": "transgenic cotton containing the aad-1 gene", "assay": "Field tolerance of aad-1 cotton to preemergence applications of 2,4-D (Example 13)", "assay_type": "in vivo", "protocol": "Transgenic cotton containing the aad-1 gene which encodes the aryloxyalkanoate dioxygenase (AAD-1) protein was evaluated for tolerance to preemergence applications of 2,4-D in the field. Trials consisted of three replications and were conducted at multiple locations in Mississippi, Georgia, Tennessee, and Arkansas. A randomized complete block design of a single row separated by a guard row, approximately 10 feet (20 feet for the Mississippi trial) in length was used. Seed was planted using 8 seed per foot, plants were then hand thinned to 3.5 plants/foot of row. Herbicide-treated plots were paired with untreated plots to provide accurate evaluation of emergence and early season growth. All plots received at least ½ inch of rain or irrigation water within 24 hours of application. Herbicide treatments of 560, 1120, 2240, and 4480 g ae/ha of 2,4-D amine (WEEDAR 64, Nufarm, Burr Ridge, Ill.) were applied shortly after planting but before crop emergence. Soil and precipitation information for these trials is contained in Table 32."}, "[5]": {"conditions": "preemergence 560, 1120, 2240 and 4480 gm ae/ha"}},
  "data": [
    {"smiles": "O=C(O)COc1ccc(Cl)cc1Cl", "note": "[2,4-D, 2,4-dichlorophenoxyacetic acid]", "values": [
      {"measurement": "Percent Plant Injury", "setting": "[1]; 1120 g ae/ha", "result": 3, "unit": "%"},
      {"measurement": "Percent Plant Injury", "setting": "[1]; 2240 g ae/ha", "result": 4, "unit": "%"},
      {"measurement": "Percent Plant Injury", "setting": "[1]; 4480 g ae/ha", "result": 9, "unit": "%"},
      {"measurement": "Percent Plant Injury", "setting": "[2]; 1120 g ae/ha", "result": 12, "unit": "%"},
      {"measurement": "Percent Plant Injury", "setting": "[2]; 2240 g ae/ha", "result": 16, "unit": "%"},
      {"measurement": "Percent Plant Injury", "setting": "[2]; 4480 g ae/ha", "result": 31, "unit": "%"},
      {"measurement": "tolerance of preemergence treatments", "setting": "[3]", "result": "robust tolerance"},
      {"measurement": "Chlorosis", "setting": "[4]; 560, 1120, 2240 and 4480 gm ae/ha, remainder of the season", "result": "not detected"},
      {"measurement": "Injury", "setting": "[4]; 560 and 1120 gm ae/ha", "result": "not significantly different from the untreated control plot"},
      {"measurement": "growth inhibition", "setting": "[4]; 560 and 1120 gm ae/ha, 7 to 8, 11 to 14, 27 to 30 and 52 to 57 days after application", "result": "less than 2%"},
      {"measurement": "Chlorosis", "setting": "[4]; 560 and 1120 gm ae/ha, 7 to 8 days after application", "result": "not detected"},
      {"measurement": "stand reduction", "setting": "[4]; 560 gm ae/ha, 7 to 8 days after planting and preemergence application", "result": 3, "unit": "%"},
      {"measurement": "stand reduction", "setting": "[4]; 560 gm ae/ha, 11 to 14 days after planting and application", "result": 5, "unit": "%"},
      {"measurement": "stand reduction", "setting": "[4]; 1120 gm ae/ha, 7 to 8 days after planting and preemergence application", "result": "no reduction"},
      {"measurement": "stand reduction", "setting": "[4]; 1120 gm ae/ha, 11 to 14 days after planting and application", "result": 2, "unit": "%"},
      {"measurement": "Chlorosis, visual rating", "setting": "[4]; 2240 and 4480 gm ae/ha, 7-8 days after application", "result": "< 5", "unit": "%"},
      {"measurement": "growth inhibition", "setting": "[4]; 2240 gm ae/ha", "result": "< 10", "unit": "%"},
      {"measurement": "stand reduction", "setting": "[4]; 2240 gm ae/ha, 7 to 8 days after planting and preemergence application", "result": 19, "unit": "%"},
      {"measurement": "stand reduction", "setting": "[4]; 2240 gm ae/ha, 11 to 14 days after planting and application", "result": 14, "unit": "%"},
      {"measurement": "growth inhibition", "setting": "[4]; 4480 gm ae/ha, 7 to 8 days after application", "result": 27, "unit": "%"},
      {"measurement": "stand reduction", "setting": "[4]; 4480 gm ae/ha, 7 to 8 days after planting and preemergence application", "result": 34, "unit": "%"},
      {"measurement": "growth inhibition", "setting": "[4]; 4480 gm ae/ha, 11 to 14 days after application", "result": 28, "unit": "%"},
      {"measurement": "stand reduction", "setting": "[4]; 4480 gm ae/ha, 11 to 14 days after planting and application", "result": 25, "unit": "%"},
      {"measurement": "growth inhibition", "setting": "[4]; 4480 gm ae/ha, 27 to 30 days after application", "result": 17, "unit": "%"},
      {"measurement": "growth inhibition", "setting": "[4]; 4480 gm ae/ha, 52 to 57 days after application", "result": 8.3, "unit": "%"},
      {"measurement": "Differences in plant height, fruiting pattern, and yield", "setting": "[4]; [5]", "result": "not detected"},
      {"measurement": "epinasty", "setting": "[4]; [5]", "result": "did not cause epinasty"},
      {"measurement": "effect on plant stands", "setting": "[4]; preemergence 560, 1120 and 2240 gm ae/ha, compared to untreated plot", "result": "did not significantly affect plant stands"}
    ]}
  ]
}
